Test results taken from ChEMBL document CHEMBL5036348, “Identification and evaluation of 4-anilinoquin(az)olines as potent inhibitors of both dengue virus (DENV) and Venezuelan equine encephalitis virus (VEEV)” (Bioorg Med Chem Lett, 2021).

Assays:
[1] = tested on: dengue virus type 2; assay: Antiviral activity against DENV2 New Guinea C strain infected in human Huh7 cells assessed as reduction in viral infection measured after 48 hrs post infection by renilla luciferase assay relative to control; format: functional, organism-based; conditions: Huh-7, 48 h
[2] = Cytotoxicity against DENV infected human Huh-7 cells assessed as reduction in cell viability by alamar blue assay; format: cell-based; conditions: DENV-infected Huh-7 cells
[3] = tested on: Venezuelan equine encephalitis virus; assay: Antiviral activity against Venezuelan equine encephalitis virus TC-83 strain infected in human U-87 MG cells assessed as reduction in viral infection measured after 18 hrs post infection by Nano luciferase assay relative to control; format: functional, organism-based; conditions: TC-83, U-87 MG
[4] = Cytotoxicity against Venezuelan equine encephalitis virus TC-83 strain infected human U-87 MG cells assessed as reduction in cell viability by alamar blue assay; format: cell-based, U-87MG ATCC

Row | SMILES | EC50 [1] | CC50 [2] | EC50 [3] | CC50 [4]
1 | C#Cc1cccc(Nc2ccnc3cc(OC)c(OC)cc23)c1 | 8.6 µM | > 10 µM | 7.5 µM | > 10 µM
2 | C#Cc1cccc(Nc2ncnc3cc(OC)c(OC)cc23)c1 | 6.5 µM | > 10 µM | 10 µM | > 10 µM
3 | C#Cc1cccc(Nc2c(C#N)cnc3cc(OC)c(OC)cc23)c1 | 3 µM | > 10 µM | > 10 µM | > 10 µM
4 | COc1cc(Nc2ncnc3ccc(C(F)(F)F)cc23)cc(OC)c1OC | > 10 µM | > 10 µM | > 10 µM | > 10 µM
5 | COc1cccc(Nc2ccnc3ccc(C(F)(F)F)cc23)c1 | 0.82 µM | > 10 µM | 5.5 µM | > 10 µM
6 | N#Cc1ccccc1Nc1ccnc2ccc(C(F)(F)F)cc12 | > 10 µM | > 10 µM | > 10 µM | > 10 µM
7 | C#Cc1cccc(Nc2ccnc3ccc(OC)cc23)c1 | 4.3 µM | > 10 µM | > 10 µM | > 10 µM
8 | FC(F)(F)c1ccc2nccc(Nc3ccc(Br)cc3)c2c1 | 4.1 µM | > 10 µM | 6.3 µM | > 10 µM
9 | COc1cc(Nc2ccnc3ccc(C(F)(F)F)cc23)cc(OC)c1 | 1.3 µM | > 10 µM | 2.1 µM | > 10 µM
10 | COc1ccc(Nc2ccnc3ccc(C(F)(F)F)cc23)cc1OC | 8.9 µM | > 10 µM | > 10 µM | > 10 µM
11 | C#Cc1cccc(Nc2ccnc3cc(OC)ccc23)c1 | 1.7 µM | > 10 µM | > 10 µM | > 10 µM
12 | FC(F)(F)c1ccc2nccc(Nc3ccc4c(c3)OCCO4)c2c1 | > 10 µM | > 10 µM | > 10 µM | > 10 µM
13 | FC(F)(F)c1ccc2nccc(Nc3ccc4c(c3)OCO4)c2c1 | 4.1 µM | > 10 µM | 1.5 µM | > 10 µM
14 | COc1ccccc1Nc1ccnc2ccc(C(F)(F)F)cc12 | > 10 µM | > 10 µM | 2.5 µM | > 10 µM
15 | FC(F)(F)c1ccc2nccc(Nc3ccc(Cl)c(Cl)c3)c2c1 | 3.3 µM | > 10 µM | 0.5 µM | > 10 µM
16 | C#Cc1cccc(Nc2ncnc3cc(OC)c(OC)cc23)c1F | > 10 µM | > 10 µM | 10 µM | > 10 µM
17 | CS(=O)(=O)c1ccc(Nc2ccnc3ccc(C(F)(F)F)cc23)cc1 | 6.1 µM | > 10 µM | > 10 µM | > 10 µM
18 | Fc1cc(Nc2ccnc3ccc(C(F)(F)F)cc23)cc(F)c1F | > 10 µM | > 10 µM | > 10 µM | > 10 µM
19 | FC(F)(F)c1cccc(Nc2ccnc3ccc(C(F)(F)F)cc23)c1 | 5.7 µM | > 10 µM | 4.8 µM | > 10 µM
20 | CC(=O)c1cccc(Nc2ccnc3ccc(C(F)(F)F)cc23)c1 | 6.8 µM | > 10 µM | > 10 µM | > 10 µM
21 | COc1cccc(Nc2ccnc3cc(OC)c(OC)cc23)c1 | 5.9 µM | > 10 µM | 4.8 µM | > 10 µM
22 | C#Cc1ccc(F)c(Nc2ncnc3cc(OC)c(OC)cc23)c1 | 9 µM | > 10 µM | 7.8 µM | > 10 µM
23 | C#Cc1cccc(Nc2ccnc3ccc(C(F)(F)F)cc23)c1 | 3.8 µM | > 10 µM | 2.5 µM | > 10 µM
24 | FC(F)(F)c1ccc2nccc(Nc3ccccc3Br)c2c1 | > 10 µM | > 10 µM | > 10 µM | > 10 µM
25 | FC(F)(F)c1ccc2nccc(Nc3ccc(Cl)cc3)c2c1 | 7.2 µM | > 10 µM | 1.9 µM | > 10 µM
26 | C#Cc1cccc(Nc2c(C#N)cnc3ccc(OC)cc23)c1 | 8.9 µM | > 10 µM | > 10 µM | > 10 µM
27 | FC(F)(F)c1ccc2nccc(Nc3cccc(Cl)c3)c2c1 | 7.9 µM | > 10 µM | 4.8 µM | > 10 µM

Row | SMILES | EC50 [1] | CC50 [2] | EC50 [3] | CC50 [4]
28 | COc1ccc(OC)c(Nc2ccnc3ccc(C(F)(F)F)cc23)c1 | 0.25 µM | > 10 µM | 1.7 µM | > 10 µM
29 | C#Cc1cccc(Nc2ncnc3cc(OC)ccc23)c1 | > 10 µM | > 10 µM | > 10 µM | > 10 µM
30 | C#Cc1cc(Nc2ncnc3cc(I)ccc23)ccc1F | > 10 µM | > 10 µM | > 10 µM | > 10 µM
31 | C#Cc1cccc(Nc2c(C#N)cnc3cc(OC)ccc23)c1 | 7.8 µM | > 10 µM | > 10 µM | > 10 µM
32 | CS(=O)(=O)c1cccc(Nc2ccnc3ccc(C(F)(F)F)cc23)c1 | > 10 µM | > 10 µM | > 10 µM | > 10 µM
33 | Fc1cc(Nc2ccnc3ccc(C(F)(F)F)cc23)ccc1Cl | 4.1 µM | > 10 µM | 1.7 µM | > 10 µM
34 | N#Cc1ccc(Nc2ccnc3ccc(C(F)(F)F)cc23)cc1 | 9.8 µM | > 10 µM | > 10 µM | > 10 µM
35 | Fc1cc(Cl)cc(Nc2ccnc3ccc(C(F)(F)F)cc23)c1 | 9.3 µM | > 10 µM | 5.8 µM | > 10 µM
36 | C#Cc1cccc(Nc2ncnc3ccc(OC)cc23)c1 | 9.7 µM | > 10 µM | 8 µM | > 10 µM
37 | COc1ccc(Nc2ccnc3ccc(C(F)(F)F)cc23)c(OC)c1 | > 10 µM | > 10 µM | 3.4 µM | > 10 µM
38 | Fc1ccc(Nc2ccnc3ccc(C(F)(F)F)cc23)cc1F | > 10 µM | > 10 µM | > 10 µM | > 10 µM
39 | Fc1ccccc1Nc1ccnc2ccc(C(F)(F)F)cc12 | > 10 µM | > 10 µM | > 10 µM | > 10 µM
40 | COc1cc2nccc(Nc3cccc(C(C)=O)c3)c2cc1OC | 4.8 µM | > 10 µM | 1.3 µM | > 10 µM
41 | Fc1cccc(Nc2ccnc3ccc(C(F)(F)F)cc23)c1 | > 10 µM | > 10 µM | > 10 µM | > 10 µM
42 | FC(F)(F)c1ccc2nccc(Nc3ccccc3Cl)c2c1 | > 10 µM | > 10 µM | 6.4 µM | > 10 µM
43 | N#Cc1cccc(Nc2ccnc3ccc(C(F)(F)F)cc23)c1 | > 10 µM | > 10 µM | 2.2 µM | > 10 µM
44 | FC(F)(F)c1ccc2nccc(Nc3cccc(Br)c3)c2c1 | 6.1 µM | > 10 µM | 2.3 µM | > 10 µM
45 | FC(F)(F)c1ccc2nccc(Nc3cccc(I)c3)c2c1 | 6.1 µM | > 10 µM | 1.4 µM | > 10 µM
46 | C#Cc1cc(Nc2ncnc3ccc(I)cc23)ccc1F | 5 µM | > 10 µM | > 10 µM | > 10 µM
47 | C#Cc1cc(Nc2ncnc3cc(C#N)ccc23)ccc1F | > 10 µM | > 10 µM | 3.9 µM | > 10 µM
48 | COc1ccc(Nc2ccnc3ccc(C(F)(F)F)cc23)cc1 | 7.7 µM | > 10 µM | 0.88 µM | > 10 µM
49 | Fc1ccc(Nc2ccnc3ccc(C(F)(F)F)cc23)cc1 | > 10 µM | > 10 µM | > 10 µM | > 10 µM
50 | COc1cc(Nc2ccnc3ccc(C(F)(F)F)cc23)cc(OC)c1OC | – | > 10 µM | 1.6 µM | > 10 µM
51 | C#Cc1cc(Nc2ncnc3cc(OC)c(OC)cc23)ccc1F | 7.6 µM | > 10 µM | 0.6 µM | > 10 µM
52 | COc1cc2nccc(Nc3cccc(Br)c3)c2cc1OC | 9.8 µM | > 10 µM | 4.8 µM | > 10 µM
53 | C#Cc1cccc(Nc2ncnc3cc(OCCOC)c(OCCOC)cc23)c1 [ERLOTINIB] | – | – | > 20 µM | –
